Counter-ions that a name gives are not always drawn.
System: 293T-HRE-GFP-luc cells
Assay: Cell-based reporter assay for IC50 determinations
Details: hypoxia 6 hrs (1% O2), luminescence, read-out: IC50 Classification
Protocol: Cell-Based Reporter Assay for IC50 Determinations
293T-HRE-GFP-luc cells were routinely maintained in DMEM media (high glucose version with GlutaMAX and HEPES, Gibco, catalog #10564) supplemented with 10% fetal bovine serum and 2 μg/mL puromycin (Invitrogen, catalog #A11138-03) using a humidified incubator (normoxia conditions consisting of 37° C., 5% CO2 and ambient O2).
In preparation for the reporter assay, cells were harvested and resuspended in DMEM media (high glucose version with GlutaMAX and HEPES) supplemented with 10% fetal bovine serum. Cells were inoculated into 384-well white Culturplates (Perkin Elmer catalog #6007680) at a density of 12,000 cells/well in a volume of 30 μL. The microplates were incubated overnight (approximately 17-19 hours) at 37° C. with 5% CO2 and ambient O2. Stock solutions of the test compounds were prepared in DMSO (Sigma, Catalog #D2650) and serially diluted 1:3 using DMSO. Compounds were additionally diluted (1:50) with culturemedium and 10 μL were added per well to the Culturplate. Following a 30 min. incubation under normoxia conditions, the plates were incubated in hypoxia for 6 hrs. (37° C., 5% CO2 and 1% O2). Steadylite Plus (Perkin Elmer, catalog #6016751) was then added (40 μL/well), the plates were mixed on an orbital shaker at room temperature in the dark for 15 min., and luminescence was measured using an Envision plate reader (Perkin Elmer). IC50 values were calculated using a four-parameter logistic curve fit. Results are shown below in Table 2; ND indicates no data.

SMILES	IC50 [nM]
Cc1nc(-c2nc(-c3ccc(OC(F)(F)F)cc3)no2)nn1Cc1ccnc(N2CCNCC2)c1 [Example 1, 4-(4-((5-Methyl-3-(3-(4-(trifluoromethoxy)phenyl)-1,2,4-oxadiazol-5-yl)-1H-1,2,4-triazol-1-yl)methyl)pyridin-2-yl)piperazin-1-ium trifluoroacetate]	100 to 1000
Cc1nc(-c2ccc(-c3ccccc3)o2)nn1Cc1ccnc(N2CCN(C)CC2)c1 [Example 3]	1000 to 10000
FC(F)(F)Oc1ccc(-c2noc(-c3nc(-c4cccnc4)n(Cc4ccccc4)n3)n2)cc1 [Example 4, 3-(1-Benzyl-3-(3-(4-(trifluoromethoxy)phenyl)-1,2,4-oxadiazol-5-yl)-1H-1,2,4-triazol-5-yl)pyridin-1-ium trifluoroacetate]	< 100
Cc1nc(-c2nnc(-c3ccccc3)o2)nn1Cc1ccnc(N2CCC(C)(C)CC2)c1 [Example 5, 2-(4,4-Dimethylpiperidin-1-yl)-4-((5-methyl-3-(5-phenyl-1,3,4-oxadiazol-2-yl)-1H-1,2,4-triazol-1-yl)methyl)pyridin-1-ium trifluoroacetate]	1000 to 10000
Cc1nc(-c2nnc(-c3ccc(OC(F)(F)F)cc3)o2)nn1Cc1cccc(N2CCN(C)CC2)c1 [Example 6, 1-Methyl-4-(3-((5-methyl-3-(5-(4-(trifluoromethoxy)phenyl)-1,3,4-oxadiazol-2-yl)-1H-1,2,4-triazol-1-yl)methyl)phenyl)piperazin-1-ium trifluoroacetate]	< 100
Cc1nc(-c2nnc(-c3ccc(OC(F)(F)F)cc3)o2)nn1Cc1ccnc(N2CCN(C)CC2)c1 [Example 7, 1-Methyl-4-(4-((5-methyl-3-(5-(4-(trifluoromethoxy)phenyl)-1,3,4-oxadiazol-2-yl)-1H-1,2,4-triazol-1-yl)methyl)pyridin-1-ium-2-yl)piperazin-1-ium trifluoroacetate]	100 to 1000
Cc1nc(-c2nnc(-c3ccc(C(C)(C)C)cc3)o2)nn1Cc1cccc(N2CCN(C)CC2)c1 [Example 8, 2-(4-(tert-Butyl)phenyl)-5-(5-methyl-1-(3-(4-methylpiperazin-1-yl)benzyl)-1H-1,2,4-triazol-3-yl)-1,3,4-oxadiazole]	< 100
Cc1nc(-c2nc(-c3ccc(C(C)(C)C)cc3)no2)nn1Cc1ccnc(N2CCN(C)CC2)c1 [Example 9, 3-(4-(tert-Butyl)phenyl)-5-(5-methyl-1-((2-(4-methylpiperazin-1-yl)pyridin-4-yl)methyl)-1H-1,2,4-triazol-3-yl)-1,2,4-oxadiazole]	< 100
Cc1nc(-c2nc(-c3ccc(OC(F)(F)F)cc3)no2)nn1Cc1ccnc(N2CCOCC2)c1 [Example 10, 4-(4-((5-Methyl-3-(3-(4-(trifluoromethoxy)phenyl)-1,2,4-oxadiazol-5-yl)-1H-1,2,4-triazol-1-yl)methyl)pyridin-2-yl)morpholine]	< 100
Cc1nc(-c2nc(-c3ccc(OC(F)(F)F)cc3)no2)nn1Cc1cccc(NCCN(C)C)c1 [Example 11, N,N-Dimethyl-2-((3-((5-methyl-3-(3-(4-(trifluoromethoxy)phenyl)-1,2,4-oxadiazol-5-yl)-1H-1,2,4-triazol-1-yl)methyl)phenyl)amino)ethanaminium trifluoroacetate]	1000 to 10000
COC(=O)c1cccc(Cn2nc(-c3nc(-c4ccc(OC(F)(F)F)cc4)no3)nc2C)c1 [Example 12, Methyl 3-((5-methyl-3-(3-(4-(trifluoromethoxy)phenyl)-1,2,4-oxadiazol-5-yl)-1H-1,2,4-triazol-1-yl)methyl)benzoate]	< 100
Cc1nc(-c2nc(-c3ccc(OC(F)(F)F)cc3)no2)nn1Cc1cccc(C(=O)N2CCN(C)CC2)c1 [Example 13, (3-((5-Methyl-3-(3-(4-(trifluoromethoxy)phenyl)-1,2,4-oxadiazol-5-yl)-1H-1,2,4-triazol-1-yl)methyl)phenyl)(4-methylpiperazin-1-yl)methanone]	< 100
COCCCNC(=O)c1cccc(Cn2nc(-c3nc(-c4ccc(OC(F)(F)F)cc4)no3)nc2C)c1 [Example 14, N-(3-methoxypropyl)-3-((5-methyl-3-(3-(4-(trifluoromethoxy)phenyl)-1,2,4-oxadiazol-5-yl)-1H-1,2,4-triazol-1-yl)methyl)benzamide]	< 100
Cc1ccc(Cn2nc(-c3nc(-c4ccc(OC(F)(F)F)cc4)no3)nc2C)cc1 [Example 15, 5-(5-Methyl-1-(4-methylbenzyl)-1H-1,2,4-triazol-3-yl)-3-(4-(trifluoromethoxy)phenyl)-1,2,4-oxadiazole]	< 100
Cc1nc(-c2nc(-c3ccc(OC(F)(F)F)cc3)no2)nn1Cc1cn2ccccc2n1 [Example 16, 5-(1-(imidazo[1,2-a]pyridin-2-ylmethyl)-5-methyl-1H-1,2,4-triazol-3-yl)-3-(4-(trifluoromethoxy)phenyl)-1,2,4-oxadiazole]	100 to 1000
Cc1nc(-c2nc(-c3ccc(OC(F)(F)F)cc3)no2)nn1Cc1cnc(Cl)s1 [Example 17, 5-(1-((2-Chlorothiazol-5-yl)methyl)-5-methyl-1H-1,2,4-triazol-3-yl)-3-(4-(trifluoromethoxy)phenyl)-1,2,4-oxadiazole]	1000 to 10000
Cc1nc(-c2nc(-c3ccc(OC(F)(F)F)cc3)no2)nn1Cc1cnc(N2CCOCC2)s1 [Example 18, 4-(5-((5-Methyl-3-(3-(4-(trifluoromethoxy)phenyl)-1,2,4-oxadiazol-5-yl)-1H-1,2,4-triazol-1-yl)methyl)thiazol-2-yl)morpholine]	1000 to 10000
Cc1nc(-c2nc(-c3ccc(OC(F)(F)F)cc3)no2)nn1Cc1ccnc(Cl)n1 [Example 19, 5-(1-((2-Chloropyrimidin-4-yl)methyl)-5-methyl-1H-1,2,4-triazol-3-yl)-3-(4-(trifluoromethoxy)phenyl)-1,2,4-oxadiazole]	1000 to 10000
Cc1nc(-c2nc(-c3ccc(OC(F)(F)F)cc3)no2)nn1Cc1ccnc(N2CCN(C)CC2)n1 [Example 20, 5-(5-Methyl-1-((2-(4-methylpiperazin-1-yl)pyrimidin-4-yl)methyl)-1H-1,2,4-triazol-3-yl)-3-(4-(trifluoromethoxy)phenyl)-1,2,4-oxadiazole]	< 100
Cc1nc(-c2nc(-c3ccc(S(C)(=O)=O)cc3)no2)nn1Cc1ccnc(N2CCN(C)CC2)c1 [Example 21, 1-Methyl-4-(4-((5-methyl-3-(3-(4-(methylsulfonyl)phenyl)-1,2,4-oxadiazol-5-yl)-1H-1,2,4-triazol-1-yl)methyl)pyridin-1-ium-2-yl)piperazin-1-ium bis-trifluoroacetate]	1000 to 10000
Cc1ccc(-c2noc(-c3nc(C)n(Cc4ccnc(N5CCN(C)CC5)c4)n3)n2)cc1 [Example 22, 1-Methyl-4-(4-((5-methyl-3-(3-(p-tolyl)-1,2,4-oxadiazol-5-yl)-1H-1,2,4-triazol-1-yl)methyl)pyridin-1-ium-2-yl)piperazin-1-ium bis-trifluoroacetate]	100 to 1000
Cc1nc(-c2nc(-c3ccc(OC(F)F)cc3)no2)nn1Cc1ccnc(N2CCN(C)CC2)c1 [Example 23, 4-(4-((3-(3-(4-(Difluoromethoxy)phenyl)-1,2,4-oxadiazol-5-yl)-5-methyl-1H-1,2,4-triazol-1-yl)methyl)pyridin-1-ium-2-yl)-1-methylpiperazin-1-ium bis-trifluoroacetate]	100 to 1000
Cc1nc(-c2nc(-c3ccc(OC(F)(F)F)cc3)no2)nn1Cc1ccccc1 [Example 24, 5-(1-Benzyl-5-methyl-1H-1,2,4-triazol-3-yl)-3-(4-(trifluoromethoxy)phenyl)-1,2,4-oxadiazole]	100 to 1000

— patent US10208059B2, “Heterocyclic modulators of HIF activity for treatment of disease” (Board of Regents, University of Texas System, priority 2012, dated 2019)
